Data published in PubChem BioAssay AID248 (DTP/NCI, 2004).
Toxic doses and inconclusive results are not listed. No stated cut-off is given here; in the data, active means T/C of 150% or more; inactive means T/C below 125%.

Test system: L1210 leukemia ip in BDF1 mice, survival T/C
Test: NCI In Vivo Anticancer Drug Screen. Data for tumor model L1210 Leukemia (intraperitoneal) in B6D2F1 (BDF1) mice
Settings: endpoint: mean survival time, higher = longer survival
Method in brief: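 Survival endpoint. Drug-treated group vs vehicle group, expressed as T divided by C. Tumor passaged by transplantation.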

[1] = dose: 100.0 mg/kg/injection, schedule: Q01DX009 (ip), vehicle: other
[2] = dose: 100.0 mg/kg/injection, schedule: Q04DX003 (ip), vehicle: other
[3] = dose: 200.0 mg/kg/injection, schedule: Q01DX009 (ip), vehicle: other
[4] = dose: 200.0 mg/kg/injection, schedule: Q04DX003 (ip), vehicle: other
[5] = dose: 100.0 mg/kg/injection, schedule: Q01DX001 (ip), vehicle: saline
[6] = dose: 100.0 mg/kg/injection, schedule: Q04DX003 (ip), vehicle: saline with Tween-80
[7] = dose: 200.0 mg/kg/injection, schedule: Q04DX003 (ip), vehicle: saline with Tween-80
[8] = dose: 400.0 mg/kg/injection, schedule: Q04DX003 (ip), vehicle: saline with Tween-80
[9] = dose: 12.5 mg/kg/injection, schedule: Q01DX009 (ip), vehicle: saline with Tween-80
[10] = dose: 25.0 mg/kg/injection, schedule: Q01DX009 (ip), vehicle: saline with Tween-80
[11] = dose: 100.0 mg/kg/injection, schedule: Q04DX003 (ip), vehicle: saline
[12] = dose: 200.0 mg/kg/injection, schedule: Q04DX003 (ip), vehicle: saline
[13] = dose: 400.0 mg/kg/injection, schedule: Q04DX003 (ip), vehicle: saline
[14] = dose: 100.0 mg/kg/injection, schedule: Q01DX009 (ip), vehicle: Klucel (hydroxypropylcellulose) (HPC)

Measured: T/C

COc1ccc(CN(CC(=O)O)S(C)(=O)=O)cc1
inactive: [1] 110 % of control | [2] 90 % of control | [3] 107 % of control | [4] 98 % of control | dose: 400.0 mg/kg/injection, schedule: Q01DX009 (ip), vehicle: other 111 % of control | dose: 400.0 mg/kg/injection, schedule: Q04DX003 (ip), vehicle: other 95 % of control

O=c1c(-c2ccccc2)c(-c2ccccc2)n2n1C1CCC2C1 (stereo not drawn)
inactive: [5] 95 % of control | dose: 200.0 mg/kg/injection, schedule: Q01DX001 (ip), vehicle: saline 89 % of control | dose: 400.0 mg/kg/injection, schedule: Q01DX001 (ip), vehicle: saline 110 % of control

COc1cc2[nH]c(=O)c3cccn3c(=O)c2cc1OC
inactive: dose: 50.0 mg/kg/injection, schedule: Q04DX002 (ip), vehicle: other 102 % of control | dose: 100.0 mg/kg/injection, schedule: Q04DX002 (ip), vehicle: other 105 % of control | dose: 200.0 mg/kg/injection, schedule: Q04DX002 (ip), vehicle: other 94 % of control

Cc1cc(Br)cnc1Cl
inactive: [6] 96 % of control | [7] 94 % of control | [8] 96 % of control

NC1CC[N-]CC1.NC1CC[N-]CC1.NC1CC[N-]CC1.NC1CC[N-]CC1.[Cl][Rh][Cl]
inactive: dose: 6.25 mg/kg/injection, schedule: Q01DX009 (ip), vehicle: saline with Tween-80 100 % of control | [9] 96 % of control | [10] 104 % of control

CCOC1Cc2ccccc21 (stereo not drawn)
inactive: [6] 95 % of control | [7] 96 % of control | [8] 98 % of control

Cc1ccc(S(=O)(=O)NCCCc2c(C)nc(N)n(Cc3cccc([N+](=O)[O-])c3)c2=O)cc1
inactive: dose: 100.0 mg/kg/injection, schedule: Q01DX001 (ip), vehicle: Klucel (hydroxypropylcellulose) (HPC) 103 % of control | dose: 200.0 mg/kg/injection, schedule: Q01DX001 (ip), vehicle: Klucel (hydroxypropylcellulose) (HPC) 91 % of control | dose: 400.0 mg/kg/injection, schedule: Q01DX001 (ip), vehicle: Klucel (hydroxypropylcellulose) (HPC) 103 % of control

CCOC(=O)CP(=O)(OC)c1ccccc1 (stereo not drawn)
inactive: dose: 100.0 mg/kg/injection, schedule: Q01DX009 (ip), vehicle: saline 97 % of control | dose: 200.0 mg/kg/injection, schedule: Q01DX009 (ip), vehicle: saline 120 % of control | dose: 400.0 mg/kg/injection, schedule: Q01DX009 (ip), vehicle: saline 101 % of control

O=S(=O)(OCC#CCOS(=O)(=O)c1ccc(Cl)c(Cl)c1)c1ccc(Cl)c(Cl)c1
inactive: [9] 90 % of control | [10] 90 % of control

Cn1cnc(N)c1/C(N)=N/O
inactive: dose: 6.25 mg/kg/injection, schedule: Q01DX005 (ip), vehicle: saline 100 % of control | dose: 12.5 mg/kg/injection, schedule: Q01DX005 (ip), vehicle: saline 98 % of control | dose: 25.0 mg/kg/injection, schedule: Q01DX005 (ip), vehicle: saline 107 % of control | dose: 50.0 mg/kg/injection, schedule: Q01DX005 (ip), vehicle: saline 91 % of control

O=C(O)c1ccccc1NC(C(=O)O)c1ccccc1 (stereo not drawn)
inactive: dose: 100.0 mg/kg/injection, schedule: Q04DX002 (ip), vehicle: saline with Tween-80 100 % of control | dose: 200.0 mg/kg/injection, schedule: Q04DX002 (ip), vehicle: saline with Tween-80 96 % of control | dose: 400.0 mg/kg/injection, schedule: Q04DX002 (ip), vehicle: saline with Tween-80 96 % of control

COC1OC(CN(CCCl)C(C)=O)C2OC(C)(C)OC12 (stereo not drawn)
inactive: dose: 50.0 mg/kg/injection, schedule: Q04DX003 (ip), vehicle: saline 96 % of control | [11] 94 % of control | [12] 92 % of control | [13] 100 % of control

COc1cc2ccc3c(c2cc1OC)C=[N+](C)CC3
inactive: dose: 100.0 mg/kg/injection, schedule: Q01DX009 (ip), vehicle: saline sonified 120 % of control | dose: 100.0 mg/kg/injection, schedule: Q04DX003 (ip), vehicle: saline sonified 98 % of control | dose: 200.0 mg/kg/injection, schedule: Q01DX009 (ip), vehicle: saline sonified 114 % of control | dose: 200.0 mg/kg/injection, schedule: Q04DX003 (ip), vehicle: saline sonified 93 % of control | dose: 400.0 mg/kg/injection, schedule: Q04DX003 (ip), vehicle: saline sonified 102 % of control

O=[N+]([O-])c1cccs1
inactive: dose: 50.0 mg/kg/injection, schedule: Q01DX009 (ip), vehicle: Klucel (hydroxypropylcellulose) (HPC) 97 % of control | [14] 108 % of control | [2] 104 % of control | [4] 103 % of control

COC(=O)C1OC(n2cnc3c(=S)nc[nH]c32)C(OC(C)=O)C(OC(C)=O)C1OC(C)=O (stereo not drawn)
inactive: dose: 50.0 mg/kg/injection, schedule: Q01DX001 (ip), vehicle: carboxymethylcellulose (CMC) 103 % of control | dose: 100.0 mg/kg/injection, schedule: Q01DX001 (ip), vehicle: carboxymethylcellulose (CMC) 100 % of control | dose: 200.0 mg/kg/injection, schedule: Q01DX001 (ip), vehicle: carboxymethylcellulose (CMC) 100 % of control | dose: 400.0 mg/kg/injection, schedule: Q01DX001 (ip), vehicle: carboxymethylcellulose (CMC) 94 % of control

CCOC(=O)CC#N
inactive: [11] 103 % of control | [12] 103 % of control | [13] 102 % of control

CCCCCCCCP(=O)(N1CC1)N1CC1
inactive: dose: 5.0 mg/kg/injection, schedule: Q01DX Z (ip), vehicle: carboxymethylcellulose (CMC) 107 % of control | dose: 6.25 mg/kg/injection, schedule: Q01DX Z (ip), vehicle: carboxymethylcellulose (CMC) 98 % of control | dose: 10.0 mg/kg/injection, schedule: Q01DX Z (ip), vehicle: carboxymethylcellulose (CMC) 102 % of control | dose: 12.5 mg/kg/injection, schedule: Q01DX Z (ip), vehicle: carboxymethylcellulose (CMC) 110 % of control | dose: 20.0 mg/kg/injection, schedule: Q01DX Z (ip), vehicle: carboxymethylcellulose (CMC) 110 % of control | dose: 25.0 mg/kg/injection, schedule: Q01DX Z (ip), vehicle: carboxymethylcellulose (CMC) 113 % of control | dose: 40.0 mg/kg/injection, schedule: Q01DX Z (ip), vehicle: carboxymethylcellulose (CMC) 117 % of control | dose: 50.0 mg/kg/injection, schedule: Q01DX Z (ip), vehicle: carboxymethylcellulose (CMC) 120 % of control

CCOC(O)(C(F)(F)F)C(F)(F)F
inactive: [9] 96 % of control | dose: 12.5 mg/kg/injection, schedule: Q04DX003 (ip), vehicle: saline with Tween-80 95 % of control | [10] 105 % of control | dose: 50.0 mg/kg/injection, schedule: Q04DX003 (ip), vehicle: saline with Tween-80 97 % of control | [5] 98 % of control

Cn1ncn(/N=C/c2ccc([N+](=O)[O-])o2)c1=O
inactive: dose: 12.5 mg/kg/injection, schedule: Q01DX009 (ip), vehicle: other 91 % of control | dose: 25.0 mg/kg/injection, schedule: Q01DX009 (ip), vehicle: other 93 % of control | dose: 50.0 mg/kg/injection, schedule: Q01DX009 (ip), vehicle: other 91 % of control | [1] 87 % of control | [3] 87 % of control

CC(=O)Nc1ccc(/C=N/NC(=O)CNC(=O)NCc2ccccc2)cc1
inactive: dose: 50.0 mg/kg/injection, schedule: Q01DX009 (ip), vehicle: saline with Tween-80 95 % of control | dose: 100.0 mg/kg/injection, schedule: Q01DX009 (ip), vehicle: saline with Tween-80 89 % of control | dose: 200.0 mg/kg/injection, schedule: Q01DX009 (ip), vehicle: saline with Tween-80 89 % of control

Cc1c(Cl)cccc1NC(=O)c1ccc(Cl)cc1
inactive: [14] 87 % of control | dose: 100.0 mg/kg/injection, schedule: Q04DX003 (ip), vehicle: Klucel (hydroxypropylcellulose) (HPC) 93 % of control | dose: 200.0 mg/kg/injection, schedule: Q01DX009 (ip), vehicle: Klucel (hydroxypropylcellulose) (HPC) 91 % of control | dose: 200.0 mg/kg/injection, schedule: Q04DX003 (ip), vehicle: Klucel (hydroxypropylcellulose) (HPC) 96 % of control | dose: 400.0 mg/kg/injection, schedule: Q01DX009 (ip), vehicle: Klucel (hydroxypropylcellulose) (HPC) 97 % of control | dose: 400.0 mg/kg/injection, schedule: Q04DX003 (ip), vehicle: Klucel (hydroxypropylcellulose) (HPC) 91 % of control
